Laboratory results: patent EP4714948A1, “COMPOUND USED FOR EGFR PROTEIN DEGRADATION, AND USE THEREOF” (TYK Medicines, Inc., priority 2023, dated 2024)

Tests used:
PC-9 = assay: Cell antiproliferative assay (CTG, 72 h); format: cell-based; conditions: Homo sapiens, PC-9 (EGFR exon 19 deletion)
Procedure: (§1) H1975 has EGFR T790M/L858R dual mutation, PC-9 has EGFR exon 19 deletion mutation, and HCC827 has exon 19 deletion mutation. CellCounting Lite 2.0, Trypsin EDTA, 37 °C CO2 incubator, cell counter, EnVision Serial No.1050454.
(§2) • (A) Trypsin EDTA was used to digest log-phase cells, medium was added to terminate the digestion reaction, and a cell suspension was prepared by blowing and mixing with a pipette. • (B) Cell concentration was determined using Vi-cell, and a suspension of 15,000-25,000 cells per milliliter was made depending on the purpose of the experiment and the characteristics of the cells. • (C) After the cell suspension was ready, it was gently mixed and each well was added with 100µL so that the cell density to be tested was 1,500- 2,500 per well.
(§3) • A) About 2 mg of compound was weighed, and the volume of DMSO required was calculated according to the formula: compound mass (mg)*compound purity (%)/compound molecular weight*1000. • (B) The inoculated cell culture plates were incubated in an incubator. About 24 hours later, compounds were added at gradient concentrations. • (C) 10mM of compound reservoir solution was diluted to […] with medium, and […] of the compound solution was added sequentially to the second column of the deep-well plate, and […] of medium containing 0.5% DMSO was added to the third to eleventh columns. • D) Gradient dilution: 125 µl of solution was pipetted from the second column and added to the third column, after mixing; another 125 µl of solution was pipetted from the third column and added to the fourth column, and the operation was repeated until the tenth column. • (E) 25 µl of compound was pipetted from the deep-well plate into a 96-well culture plate using a multichannel pipette, and each compound was run in triplicate on the 96-well plate. A 1:4 concentration gradient was established on the 96-well plate, with a final highest concentration of 10,000 nM.
(§4) • (A) 96-well plates were incubated in an incubator for 72 h. The effect of the compounds was observed under an inverted microscope. • (B) 25 µl of CTG solution was added to each well. The plate was incubated on a shaker for 10 minutes and the OD value of each well was read.
(§5) The survival rate ( % Cell Viability) was calculated using the following formula: %Cell Viability = 100% × (Lum_Sample−Lum_LC)/(Lum_HC−Lum_LC) [formula] • Lum_HC: Cell reading of 0.1% DMSO control group • Lum_Sample: Cell readings of compound addition group • Lum_LC: Reading of blank medium • IC50 values were obtained by curve fitting using GraphPad Prism 8 software.

H1975 = assay: Cell antiproliferative assay (CTG, 72 h); format: cell-based; conditions: Homo sapiens, NCI-H1975, H1975 (EGFR T790M/L858R)
Procedure: as §1, §2, §3, §4, §5

HCC827 = assay: Cell antiproliferative assay (CTG, 72 h); format: cell-based; conditions: Homo sapiens, HCC827 (exon 19 deletion)
Procedure: as §1, §2, §3, §4, §5

[1] = molecular target: EGFR in BAF3-DTC (Baf3-19del-T780M-C797S) (Homo sapiens, UniProt P00533, C797S/DEL746-750/T790M); assay: EGFR PROTAC HTRF experiment (total EGFR degradation); format: cell-based; conditions: BAF3-DTC cells, 16 hours incubation
[2] = Pharmacokinetic test on male SD rats; format: in vivo; conditions: gavage (p.o.), 10 mg/kg, plasma; for AUC(0-inf) / AUC(0-t) / Cmax / MRT last / Tmax: rat, po
Procedure: Healthy adult SD rats, male, a total of 3, 6-8 weeks old; Weighing 200-300 grams.
EDTA-Na2 anticoagulant: 11.2 g of EDTA-Na2 was weighted and placed into a reagent bottle. 100 mL of physiological saline was added and the mixture was shaken until completely dissolved. After preparation, the solution was aliquoted into 1.5 mL centrifuge tubes, each containing approximately 20 uL, for use in whole blood sample collection.
Approximately 10 mg of the test sample was accurately weighed. DMSO accounting for 10% of the total volume was added to dissolve the sample. Subsequently, 0.5% MC solvent accounting for 90% of the total volume was slowly added while stirring. The mixture was sonicated and vortexed evenly, and a visually homogeneous preparation solution was obtained, with a concentration of 1 mg/mL. This solution should be freshly prepared immediately before use.
0.2 mL of the sample was pipetted into a 1.5 mL centrifuge tube and stored at -80°C for concentration analysis of the dosing solution.
Animals were kept in rat cages and fasted for no less than 10 hours on the day before the experiment, but were allowed to drink water. The animals were individually weighed and marked on their tails. Prior to dosing, blank blood samples were collected from each animal via the tail vein.
• Administration route: gavage (p.o.) • Dosage concentration: 1mg/ml • Dosage: 10 mg/kg • Dosage volume: 10 mL/kg
Operation process: The rat was grasped with a left hand protected by a bite-resistant glove and held in an upright position. The gavage needle was inserted through the mouth and advanced towards the pharynx. The needle was advanced gently, ensuring no significant resistance was felt. The drug was then injected into the stomach.
At 0.5 h, 1 h, 2 h, 4 h, 6 h, 8 h, 12 h, and 24 h post-dosing, 0.1-0.2 mL of whole blood was collected from each test animal into EDTA-Na2 anticoagulant tubes. The tubes were mixed by inverting 3-4 times. The samples were centrifuged at 2000 × g and 4 °C for 5 minutes. The upper plasma layer was to separated, promptly transferred to -80 °C for storage until analysis. The blood was collected via tail vein.
A quantitative detection method for the test compound was established using a Shimadzu liquid chromatography system and a Triple Quad™ 6500+ AB mass spectrometry (MS) system. This method was used to analyze the concentration of the parent drug in plasma. The variation of the analysis results was controlled using quality control (QC) samples, and the accuracy of the QC samples was required to be within the range of 80%-120%.
The main pharmacokinetic parameters were calculated using the non-compartmental model (NCA) with the WinNonlin Phoenix software. These parameters include: area under the concentration-time curve (AUC(0-t) and AUC(0-∞)), elimination half-life (T1/2), maximum plasma concentration (Cmax), and time to reach maximum plasma concentration (Tmax), etc.

[3] = molecular target: EGFR in BAF3-LTC (Baf3-L858R-T780M-C797S) (Homo sapiens, UniProt P00533, C797S/L858R/T790M); assay: EGFR PROTAC HTRF experiment (total EGFR degradation); format: cell-based; conditions: BAF3-LTC cells, 16 hours incubation
Sequence of EGFR in BAF3-LTC (Baf3-L858R-T780M-C797S) (P00533 25-1210 T790M/C797S/L858R): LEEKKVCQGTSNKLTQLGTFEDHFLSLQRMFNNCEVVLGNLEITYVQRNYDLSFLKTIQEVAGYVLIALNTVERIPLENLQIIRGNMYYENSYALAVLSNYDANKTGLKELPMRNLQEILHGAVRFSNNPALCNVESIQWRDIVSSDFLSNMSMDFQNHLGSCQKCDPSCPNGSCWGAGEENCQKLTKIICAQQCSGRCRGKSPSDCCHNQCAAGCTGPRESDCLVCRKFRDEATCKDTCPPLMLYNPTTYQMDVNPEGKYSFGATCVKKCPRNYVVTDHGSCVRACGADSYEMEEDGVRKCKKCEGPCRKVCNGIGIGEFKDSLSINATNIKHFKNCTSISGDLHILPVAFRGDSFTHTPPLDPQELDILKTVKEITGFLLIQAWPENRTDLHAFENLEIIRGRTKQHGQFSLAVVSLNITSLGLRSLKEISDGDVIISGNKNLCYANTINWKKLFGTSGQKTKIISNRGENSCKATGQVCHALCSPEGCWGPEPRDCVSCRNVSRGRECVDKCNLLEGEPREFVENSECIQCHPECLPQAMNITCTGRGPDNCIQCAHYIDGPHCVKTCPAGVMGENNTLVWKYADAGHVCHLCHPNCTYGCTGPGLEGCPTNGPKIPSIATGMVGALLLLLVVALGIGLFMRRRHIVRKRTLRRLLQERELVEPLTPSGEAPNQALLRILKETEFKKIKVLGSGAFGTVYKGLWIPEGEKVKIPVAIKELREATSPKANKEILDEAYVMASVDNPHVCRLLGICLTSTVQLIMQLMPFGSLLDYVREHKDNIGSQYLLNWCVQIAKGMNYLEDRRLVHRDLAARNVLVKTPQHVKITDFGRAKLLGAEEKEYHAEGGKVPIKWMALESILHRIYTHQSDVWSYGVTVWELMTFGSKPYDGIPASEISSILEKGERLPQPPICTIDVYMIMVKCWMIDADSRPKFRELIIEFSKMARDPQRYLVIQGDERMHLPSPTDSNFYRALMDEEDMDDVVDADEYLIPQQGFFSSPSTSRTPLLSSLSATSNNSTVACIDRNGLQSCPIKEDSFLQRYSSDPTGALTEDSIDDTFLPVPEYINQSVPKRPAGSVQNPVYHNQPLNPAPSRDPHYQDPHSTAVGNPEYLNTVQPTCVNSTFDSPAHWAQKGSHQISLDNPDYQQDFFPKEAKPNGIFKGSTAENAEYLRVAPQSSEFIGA

Sequence of EGFR in BAF3-DTC (Baf3-19del-T780M-C797S) (P00533 with tags, fused parts or gaps DEL746-750/T790M/C797S): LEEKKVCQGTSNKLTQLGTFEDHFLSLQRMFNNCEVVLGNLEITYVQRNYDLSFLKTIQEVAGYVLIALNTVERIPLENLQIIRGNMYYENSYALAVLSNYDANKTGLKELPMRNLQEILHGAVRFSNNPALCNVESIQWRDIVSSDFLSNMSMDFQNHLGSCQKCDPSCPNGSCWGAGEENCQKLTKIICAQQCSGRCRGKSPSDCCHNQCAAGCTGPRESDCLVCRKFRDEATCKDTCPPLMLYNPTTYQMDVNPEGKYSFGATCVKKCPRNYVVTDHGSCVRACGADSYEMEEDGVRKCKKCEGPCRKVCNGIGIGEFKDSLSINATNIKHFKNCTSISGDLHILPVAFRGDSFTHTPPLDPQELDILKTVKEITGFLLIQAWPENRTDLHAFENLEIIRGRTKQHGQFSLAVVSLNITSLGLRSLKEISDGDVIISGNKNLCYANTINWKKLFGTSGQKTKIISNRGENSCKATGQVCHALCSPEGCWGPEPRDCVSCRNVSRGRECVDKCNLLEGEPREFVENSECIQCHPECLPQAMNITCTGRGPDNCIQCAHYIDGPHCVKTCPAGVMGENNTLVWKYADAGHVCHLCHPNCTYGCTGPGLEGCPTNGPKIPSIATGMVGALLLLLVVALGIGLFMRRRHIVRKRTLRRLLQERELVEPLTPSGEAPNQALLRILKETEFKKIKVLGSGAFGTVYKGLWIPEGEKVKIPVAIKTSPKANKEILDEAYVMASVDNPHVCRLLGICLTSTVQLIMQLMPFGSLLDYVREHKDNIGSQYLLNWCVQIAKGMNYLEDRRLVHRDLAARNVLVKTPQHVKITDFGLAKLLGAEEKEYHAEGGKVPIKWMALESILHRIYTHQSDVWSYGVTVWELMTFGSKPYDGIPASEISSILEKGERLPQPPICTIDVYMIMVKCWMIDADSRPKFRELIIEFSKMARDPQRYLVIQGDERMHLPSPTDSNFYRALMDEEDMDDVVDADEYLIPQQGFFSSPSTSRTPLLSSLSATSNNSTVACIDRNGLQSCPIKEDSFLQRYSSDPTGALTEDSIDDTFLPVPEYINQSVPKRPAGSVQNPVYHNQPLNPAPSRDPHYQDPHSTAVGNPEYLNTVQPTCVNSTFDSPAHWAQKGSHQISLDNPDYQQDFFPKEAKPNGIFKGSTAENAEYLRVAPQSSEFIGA

| SMILES | IC50 (PC-9) [nM] | IC50 (H1975) [nM] | IC50 (HCC827) [nM] | DC50 [1] [nM] | Dmax [1] [%] | HL_ [2] [h] | AUC(0-inf) [2] [ng·h/mL] | AUC(0-t) [2] [ng·h/mL] | Cmax [2] [ng/mL] | MRT last [2] [h] | Tmax [2] [h] | DC50 [3] [nM] | Dmax [3] [%] |
| --- | --- | --- | --- | --- | --- | --- | --- | --- | --- | --- | --- | --- | --- |
| CCc1cc(Nc2ncc(Cl)c(Nc3ccccc3C(=O)NC)n2)c(OC)cc1N1CCN(CCN2CCC(c3ccc(NC4CCC(=O)NC4=O)cc3)CC2)CC1 (centres unmarked) [Compound T-023] | 100 to 1000 | < 10 | 10 to 100 | 10 to 100 | 70 to 100 | 9.28 | 76300 | 61600 | 4060 | 10 | 6 | 10 to 100 | 70 to 100 |
| CCc1cc(Nc2ncc(Cl)c(Nc3ccccc3C(=O)NC)n2)c(OC)cc1N1CCN(C(=O)CN2CCC(c3ccc(NC4CCC(=O)NC4=O)cc3F)CC2)CC1 (centres unmarked) [Compound T-067] | 100 to 1000 | < 10 | 100 to 1000 | 10 to 100 | 70 to 100 | 4.39 | 11300 | 11000 | 1020 | 7.78 | 4 | 10 to 100 | 70 to 100 |
| CCc1cc(Nc2ncc(Cl)c(Nc3ccccc3C(=O)NC)n2)c(OC)cc1N1CCN(C(=O)CC2(O)CCN(c3ccc(NC4CCC(=O)NC4=O)cc3F)CC2)CC1 (centres unmarked) [Compound T-037] | 100 to 1000 | 10 to 100 | 100 to 1000 | 100 to 1000 | 50 to 70 | 2.61 | 24400 | 24000 | 2290 | 7.49 | 2.67 | 100 to 1000 | 50 to 70 |
| CCc1cc(Nc2ncc(Cl)c(Nc3ccccc3C(=O)NC)n2)c(OC)cc1N1CCN(C(=O)CN2CCN(c3ccc(NC4CCC(=O)NC4=O)cc3F)CC2)CC1 (centres unmarked) [Compound T-029] | 100 to 1000 | 10 to 100 | 100 to 1000 | 10 to 100 | 50 to 70 | 2.51 | 8210 | 7900 | 1010 | 5.65 | 4.67 | 100 to 1000 | 70 to 100 |
| CCc1cc(Nc2ncc(Cl)c(Nc3ccccc3C(=O)NC)n2)c(OC)cc1N1CC2CCC(C1)N2C(=O)CN1CCC(c2ccc(NC3CCC(=O)NC3=O)cc2)CC1 (centres unmarked) [Compound T-109] | 10 to 100 | 10 to 100 | 10 to 100 | 10 to 100 | 50 to 70 | – | – | – | – | – | – | 10 to 100 | 50 to 70 |
